Experimental data from patent US9920088B2, “Triterpene derivative and its anti-influenza use” (Peking University, priority 2012, dated 2018).

Tests used:
MDCK cells = conditions: dog, 48 h, 50 μM
[1] = system: influenza virus A/WSN/33(H1N1); assay: Cytopathic effect (CPE) inhibition assay, WSN virus in MDCK cells; assay type: cell-based; conditions: for Viral Infectivity (%): lower = better inhibition; for anti-influenza virus activity: WSN, CPE; for inhibition at 50 µM: MDCK, Table 9, protective rate against cytopathy, read-out: IAV inhibition rate (%)
[2] = Table 6, 50 μM, WSN MOI=1, 48 h
[3] = Table 8, 50 μM, WSN MOI=1, 48 h

Compound: CC(=O)OCC1O[C@@H](O[C@H]2C(COC(C)=O)O[C@H](OC(=O)[C@]34CCC(C)(C)C[C@H]3C3=CC[C@@H]5[C@@]6(C)CC[C@H](O)C(C)(C)[C@@H]6CC[C@@]5(C)[C@]3(C)CC4O)C(OC(C)=O)C2OC(C)=O)C(OC(C)=O)C(OC(C)=O)[C@H]1OC(C)=O (stereo partly drawn) [Compound Q12, 3β,16α-dihydroxy-olean-12-en-28-oic acid-28-O-(hepta-O-acetyl-β-D-maltoside)]
- Cell viability(%) (MDCK cells): 93.3%
- Viral Infectivity (%) [1, 2]: 80.1%
- anti-influenza virus activity ([1]; 50 μM): some anti-influenza virus activity

Compound: CC(=O)OCC1O[C@H](NC(=O)[C@]23CC[C@@H](C)[C@H](C)C2C2=CCC4[C@@]5(C)CC[C@H](O)C(C)(C)C5CC[C@@]4(C)[C@]2(C)C[C@H]3O)C(OC(C)=O)C(OC(C)=O)[C@@H]1OC(C)=O (stereo partly drawn) [Compound Y13, 3β-hydroxy-urs-12-en-28-oic acid-28-N-(2,3,4,6-tetra-O-acetyl-β-D-galactoside)]
- inhibition at 50 µM ([1]; 50 μM): 76.9 ± 5.53%
- anti-influenza virus activity ([1]; 50 μM): significant anti-influenza virus activity higher than Q9

Compound: CC1(C)CC[C@]2(C(=O)N[C@H]3OC(CO)[C@@H](O)C(O)C3O)C(=O)C[C@]3(C)C(=CCC4[C@@]5(C)CCC(=O)C(C)(C)C5CC[C@]43C)C2C1 (stereo partly drawn) [Compound Y4, 3,16-dione-olean-12-en-28-oic acid-28-N-(β-D-galactoside)]
- Cell viability (%) (MDCK cells): 98.5%
- Viral Infectivity (%) [1, 3]: 31.1%

Compound: CC1(C)CC[C@]2(C(=O)N[C@H]3OC(CO)[C@@H](O)C(O)C3O)CC[C@]3(C)C(=CCC4[C@@]5(C)CCC(=O)C(C)(C)C5CC[C@]43C)C2C1 (stereo partly drawn) [Compound Y10, 3-carbonyl-olean-12-en-28-oic acid-28-N-(β-D-galactoside)]
- inhibition at 50 µM ([1]; 50 μM): 4.84 ± 3.08%

Compound: CC1(C)CC[C@]2(C(=O)O[C@H]3OC(CO)[C@H](O[C@@H]4OC(CO)[C@H](O)C(O)C4O)C(O)C3O)C(O)C[C@]3(C)C(=CC[C@@H]4[C@@]5(C)CC[C@H](O)C(C)(C)[C@@H]5CC[C@]43C)[C@@H]2C1 (stereo partly drawn) [Compound Q13, 3β,16α-dihydroxy-olean-12-en-28-oic acid-28-O-(β-D-maltoside)]
- Cell viability(%) (MDCK cells): 91.7%
- Viral Infectivity (%) [1, 2]: 115.5%

Compound: CC(=O)OCC1O[C@H](NC(=O)[C@]23CCC(C)(C)CC2C2=CCC4[C@@]5(C)CC[C@H](O)C(C)(C)C5CC[C@@]4(C)[C@]2(C)C[C@H]3O)C(OC(C)=O)C(OC(C)=O)[C@@H]1OC(C)=O (stereo partly drawn) [Compound Y1, 3β,16α-dihydroxy-olean-12-en-28-oic acid-28-N-(2,3,4,6-tetra-O-acetyl-β-D-galactoside)]
- Cell viability (%) (MDCK cells): 84.8%
- Viral Infectivity (%) [1, 3]: 16.4%
- anti-influenza virus activity ([1]; 50 μM): significant anti-influenza virus activity

Compound: CC1(C)CC[C@]2(C(=O)O[C@H]3OC[C@H](O)C(O)C3O)C(O)C[C@]3(C)C(=CC[C@@H]4[C@@]5(C)CC[C@H](O)C(C)(C)[C@@H]5CC[C@]43C)[C@@H]2C1 (stereo partly drawn) [Compound Q4, 3β,16α-dihydroxy-olean-12-en-28-oic acid-28-O-(β-D-xyloside)]
- Cell viability(%) (MDCK cells): 0.1%

Compound: CC1(C)CC[C@]2(C(=O)O[C@H]3OC(CO)[C@H](O[C@H]4OC(CO)[C@@H](O)C(O)C4O)C(O)C3O)C(O)C[C@]3(C)C(=CC[C@@H]4[C@@]5(C)CC[C@H](O)C(C)(C)[C@@H]5CC[C@]43C)[C@@H]2C1 (stereo partly drawn) [Compound Q11, 3β,16α-dihydroxy-olean-12-en-28-oic acid-28-O-(β-D-lactoside)]
- Cell viability(%) (MDCK cells): 92.8%
- Viral Infectivity (%) [1, 2]: 82.6%
- anti-influenza virus activity ([1]; 50 μM): some anti-influenza virus activity

Compound: CC(=O)OCC1O[C@H](NC(=O)[C@]23CCC(C)(C)CC2C2=CCC4[C@@]5(C)CC[C@H](O)C(C)(C)C5CC[C@@]4(C)[C@]2(C)CC3)C(OC(C)=O)C(OC(C)=O)[C@H]1OC(C)=O (stereo partly drawn) [Compound Y7, 3β-hydroxy-olean-12-en-28-oic acid-28-N-(2,3,4,6-tetra-O-acetyl-β-D-mannoside)]
- Cell viability (%) (MDCK cells): 82.3%
- Viral Infectivity (%) [1, 3]: 17.4%
- anti-influenza virus activity ([1]; 50 μM): significant anti-influenza virus activity

Compound: CC1(C)CC[C@]2(C(=O)N[C@H]3OC(CO)[C@H](O)C(O)C3O)CC[C@]3(C)C(=CCC4[C@@]5(C)CC[C@H](O)C(C)(C)C5CC[C@]43C)C2C1 (stereo partly drawn) [Compound Y8, 3β-hydroxy-olean-12-en-28-oic acid-28-N-(β-D-galactoside)]
- Cell viability (%) (MDCK cells): 85.0%
- Viral Infectivity (%) [1, 3]: 19.5%
- anti-influenza virus activity ([1]; 50 μM): significant anti-influenza virus activity

Compound: CC(=O)OC1C(OC(C)=O)[C@@H](OC(C)=O)CO[C@@H]1OC(=O)[C@]12CCC(C)(C)C[C@H]1C1=CC[C@@H]3[C@@]4(C)CC[C@H](O)C(C)(C)[C@@H]4CC[C@@]3(C)[C@]1(C)CC2O (stereo partly drawn) [Compound Q3, 3β,16α-dihydroxy-olean-12-en-28-oic acid-28-O-(2,3,4-tri-O-acetyl-β-D-xyloside)]
- Cell viability(%) (MDCK cells): 100.4%
- Viral Infectivity (%) [1, 2]: 71.1%
- anti-influenza virus activity ([1]; 50 μM): some anti-influenza virus activity

Compound: CC(=O)OCC1O[C@H](NC(=O)[C@]23CC[C@@H](C)[C@H](C)C2C2=CCC4[C@@]5(C)CC[C@H](O)C(C)(C)C5CC[C@@]4(C)[C@]2(C)CC3)C(OC(C)=O)C(OC(C)=O)[C@H]1OC(C)=O (stereo partly drawn) [Compound Y15, 3β-hydroxy-urs-12-en-28-oic acid-28-N-(2,3,4,6-tetra-O-acetyl-β-D-mannoside)]
- inhibition at 50 µM ([1]; 50 μM): 39.8 ± 3.6%

Compound: CC1(C)CC[C@]2(C(=O)O[C@H]3OC(CO)[C@H](O[C@H]4OC(CO)[C@H](O)C(O)C4O)C(O)C3O)C(O)C[C@]3(C)C(=CC[C@@H]4[C@@]5(C)CC[C@H](O)C(C)(C)[C@@H]5CC[C@]43C)[C@@H]2C1 (stereo partly drawn) [Compound Q14, 3β,16α-dihydroxy-olean-12-en-28-oic acid-28-O-(β-D-cellobioside)]
- Cell viability(%) (MDCK cells): 98.3%
- Viral Infectivity (%) [1, 2]: 154.4%

Compound: C[C@@H]1CC[C@]2(C(=O)N[C@H]3OC(CO)[C@H](O)C(O)C3O)CC[C@]3(C)C(=CCC4[C@@]5(C)CC[C@H](O)C(C)(C)C5CC[C@]43C)C2[C@H]1C (stereo partly drawn) [Compound Y16, 3β-hydroxy-urs-12-en-28-oic acid-28-N-(β-D-mannoside)]
- inhibition at 50 µM ([1]; 50 μM): 48.2 ± 4.22%

Compound: CC(=O)OCC1O[C@H](NC(=O)[C@]23CCC(C)(C)CC2C2=CCC4[C@@]5(C)CCC(=O)C(C)(C)C5CC[C@@]4(C)[C@]2(C)CC3=O)C(OC(C)=O)C(OC(C)=O)[C@@H]1OC(C)=O (some centres unmarked) [Compound Y3]
- Cell viability (%) (MDCK cells): 80.8%
- Viral Infectivity (%) [1, 3]: 16.3%
- anti-influenza virus activity ([1]; 50 μM): significant anti-influenza virus activity

Compound: CC(=O)OCC1O[C@H](OC(=O)[C@]23CCC(C)(C)C[C@H]2C2=CC[C@@H]4[C@@]5(C)CC[C@H](O)C(C)(C)C5CC[C@@]4(C)[C@]2(C)CC3O)C(OC(C)=O)C(OC(C)=O)[C@H]1OC(C)=O (stereo partly drawn) [Compound Q1, 3β,16α-dihydroxy-olean-12-en-28-oic acid-28-O-(2,3,4,6-tetra-O-acetyl-β-D-glucoside)]
- Cell viability(%) (MDCK cells): 110.2%
- Viral Infectivity (%) [1, 2]: 78.7%
- anti-influenza virus activity ([1]; 50 μM): some anti-influenza virus activity

Compound: CC1(C)CC[C@]2(C(=O)O[C@H]3OC(CO)[C@H](O)C(O)C3O)C(O)C[C@]3(C)C(=CC[C@@H]4[C@@]5(C)CC[C@H](O)C(C)(C)C5CC[C@]43C)[C@@H]2C1 (stereo partly drawn) [Compound Q2, 3β,16α-dihydroxy-olean-12-en-28-oic acid-28-O-(β-D-glucoside)]
- Cell viability(%) (MDCK cells): 101.1%
- Viral Infectivity (%) [1, 2]: 76.2%
- anti-influenza virus activity ([1]; 50 μM): some anti-influenza virus activity

Compound: C[C@@H]1CC[C@]2(C(=O)N[C@H]3OC(CO)[C@@H](O)C(O)C3O)CC[C@]3(C)C(=CCC4[C@@]5(C)CC[C@H](O)C(C)(C)C5CC[C@]43C)C2[C@H]1C (stereo partly drawn) [Compound Y14, 3β-hydroxy-urs-12-en-28-oic acid-28-N-(β-D-galactoside)]
- inhibition at 50 µM ([1]; 50 μM): 62.2 ± 2.96%
- anti-influenza virus activity ([1]; 50 μM): significant anti-influenza virus activity higher than Q9

Compound: CC(=O)OCC1O[C@H](NC(=O)[C@]23CCC(C)(C)CC2C2=CCC4[C@@]5(C)CCC(=O)C(C)(C)C5CC[C@@]4(C)[C@]2(C)CC3)C(OC(C)=O)C(OC(C)=O)[C@@H]1OC(C)=O (stereo partly drawn) [Compound Y9, 3-carbonyl-olean-12-en-28-oic acid-28-N-(2,3,4,6-tetra-O-acetyl-β-D-galactoside)]
- inhibition at 50 µM ([1]; 50 μM): 32.2 ± 1.81%

Compound: CC1(C)CC[C@]2(C(=O)O[C@H]3OC[C@@H](O)C(O)C3O)C(O)C[C@]3(C)C(=CC[C@@H]4[C@@]5(C)CC[C@H](O)C(C)(C)[C@@H]5CC[C@]43C)[C@@H]2C1 (stereo partly drawn) [Compound Q6, 3β,16α-dihydroxy-olean-12-en-28-oic acid-28-O-(β-D-arabinoside)]
- Cell viability(%) (MDCK cells): 38.4%

Compound: CC(=O)OCC1O[C@H](NC(=O)[C@]23CCC(C)(C)CC2C2=CCC4[C@@]5(C)CC[C@H](O)C(C)(C)C5CC[C@@]4(C)[C@]2(C)C[C@H]3O)C(OC(C)=O)C(OC(C)=O)[C@H]1OC(C)=O (stereo partly drawn) [Compound Y11, 3β,16α-dihydroxy-olean-12-en-28-oic acid-28-N-(2,3,4,6-tetra-O-acetyl-β-D-mannoside)]
- inhibition at 50 µM ([1]; 50 μM): 26.8 ± 3.46%

Compound: CC(=O)OCC1O[C@H](OC(=O)[C@]23CCC(C)(C)C[C@H]2C2=CC[C@@H]4[C@@]5(C)CC[C@H](O)C(C)(C)[C@@H]5CC[C@@]4(C)[C@]2(C)CC3O)C(OC(C)=O)C(OC(C)=O)[C@@H]1OC(C)=O (stereo partly drawn) [Compound Q8, 3β,16α-dihydroxy-olean-12-en-28-oic acid-28-O-(2,3,4,6-tetra-O-acetyl-α-D-galactoside)]
- Cell viability(%) (MDCK cells): 102.6%
- Viral Infectivity (%) [1, 2]: 109.7%

Compound: echinocystic acid [EA, reference compound]
- Viral Infectivity (%) ([1]; Table 6, […]): 67.9%
- anti-influenza virus activity ([1]; 50 μM): some anti-influenza virus activity

Compound: CC(=O)OC1C(OC(C)=O)[C@H](OC(C)=O)CO[C@@H]1OC(=O)[C@]12CCC(C)(C)C[C@H]1C1=CC[C@@H]3[C@@]4(C)CC[C@H](O)C(C)(C)[C@@H]4CC[C@@]3(C)[C@]1(C)CC2O (stereo partly drawn) [Compound Q5, 3β,16α-dihydroxy-olean-12-en-28-oic acid-28-O-(2,3,4-tri-O-acetyl-β-D-arabinoside)]
- Cell viability(%) (MDCK cells): 100.9%
- Viral Infectivity (%) [1, 2]: 107.5%
